This note sets out measurements from US20140073694A1, “CYSTAMINE ANALOGUES FOR THE TREATMENT OF PARKINSON'S DISEASE” (UNIVERSITE LAVAL, priority 2011, published 2014).

Entries after “also recorded” stand apart in the source; their conditions may differ.

Details of data set [1]: species or system C57BL/6 mice. To be noted: in vivo, ip, 200 mg/kg. As for the experimental part: Young adult (9-week old, 25 g) male C57BL/6 mice were purchased from Charles River Laboratories (Montréal, QC, Canada). Animals were housed four per cage under standard conditions with free access to food and water, randomized and handled under the same conditions by one investigator. All experiments were performed in accordance with the Canadian Council on Animal Care and were approved by the Institutional Committee of the Centre Hospitalier de l'Université Laval (CHUL). Throughout the experiment, the health status of all mice included in the study was closely monitored. To clearly identify the active intermediate following cystamine injection, as well as to understand its systemic and cerebral metabolism, a single intraperitoneal (i.p.) injection of cystamine was administered to normal adult C57BL/6 male mice using three different doses: 10, 50, and 200 mg/kg, as determined in prior publications (Tremblay et al. 2006; Gibrat et al. 2010). These doses were ultimately compared with saline injections. Cystamine was dissolved in sterile saline (0.9%) and injected 1, 3, 12, 24 and 48 h before killing. Animals were sacrificed under deep anesthesia with ketamine/xylazine and perfused via intracardiac infusion with 0.1 M phosphate-buffered saline. […]

A short description of data set [2]: Plasma and brain metabolite levels by HPLC after a single i.p. cystamine injection (dose-response study). Type of data set: in vivo, C57BL/6 mice. As for the experimental part: Young adult (9-week old, 25 g) male C57BL/6 mice were purchased from Charles River Laboratories (Montréal, QC, Canada). Animals were housed four per cage under standard conditions with free access to food and water, randomized and handled under the same conditions by one investigator. All experiments were performed in accordance with the Canadian Council on Animal Care and were approved by the Institutional Committee of the Centre Hospitalier de l'Université Laval (CHUL). Throughout the experiment, the health status of all mice included in the study was closely monitored. To clearly identify the active intermediate following cystamine injection, as well as to understand its systemic and cerebral metabolism, a single intraperitoneal (i.p.) injection of cystamine was administered to normal adult C57BL/6 male mice using three different doses: 10, 50, and 200 mg/kg, as determined in prior publications (Tremblay et al. 2006; Gibrat et al. 2010). These doses were ultimately compared with saline injections. Cystamine was dissolved in sterile saline (0.9%) and injected 1, 3, 12, 24 and 48 h before killing. Animals were sacrificed under deep anesthesia with ketamine/xylazine and perfused via intracardiac infusion with 0.1 M phosphate-buffered saline. After intracardiac perfusion, brains were collected, snap-frozen in 2-methyl-butane and then stored at −80° C. until cryostat dissection for HPLC analyses. A total of 200 mice were assigned to this study (n=10 per group).
HPLC coupled to fluorescence detection was used in cysteine and cysteamine quantification of both sets of experiments: the dose-response study and in situ cerebral perfusion (ISCP) procedures. Frontal cortex were homogenized in 200 μL of NaHCO3 and then centrifuged at 15 700 g (4° C.) for 20 min. Fifty μl of supernatant were directly derivatized with 30 μL of 4-fluoro-7-sulfamoylbenzo-furazan (ABD-F) reagent. The alkylation reaction was completed at 55° C. for 15 min and stopped with 4.9 μL HCl 12 N. After a 10-min centrifugation at 7500 g (4° C.), the supernatant were immediately injected into the chromatograph consisting of a Waters 717 plus autosampler automatic injector set at 4° C., a Waters 1525 binary pump equipped with an Atlantis dC18 ([…]; 3.9×150 mm) column, and a Waters 2487 Dual Absorbance detector (Waters limited, Lachine, QC, Canada). The excitation was set at 385 nm and emission at 515 nm. The mobile phase, which consisted in 2.5% methanol and 0.1 M ammonium acetate adjusted at pH 4.0, was delivered at 1 mL/min (Santa et al. 2006). Peaks were identified and quantified using Breeze software (Waters limited). HPLC quantifications were normalized to protein concentrations. Protein measurements were determined with a bicinchoninic acid protein assay kit (Pierce, Rockford, Ill., USA) as described by the manufacturer's protocol.
Taurine and hypotaurine were measured by HPLC coupled with UV detection. Supernatant from NaHCO3 brain (bregma 1.54 to −0.58 mm) extracts (see section above for details) were directly derivatized with the reagent dansyl chloride (Sigma-Aldrich, St. Louis, Mo., USA) based on modified published methods (Saller and Czupryna 1989; Calon et al. 1999). Briefly, 50 μL of dansyl chloride (1.2 mg/mL) and 50 μL of sample or standard solution were mixed and then incubated for 30 min at 90° C. After a 10-min centrifugation at 7500 g (4° C.), supernatants were immediately injected into the chromatograph described above. Absorbance was set at 337 nm and the sensitivity at 0.5 absorbance unit full scale. […] Results were obtained using the same method as described above.

Setting [3] is: single i.p. cystamine 10, 50 or 200 mg/kg.
[4] abbreviates: single i.p. cystamine 10, 50 or 200 mg/kg, 1-48 h.

For the molecule `NCCSSCCN` [cystamine, Cystamine], the “duration of hypothermia and somnolence signs” value in data set [1] (male, C57BL/6, mouse) is “approximately 2 h”. Moreover, in data set [1] (mouse), the clinical signs entry was “signs of hypothermia (shivering) and somnolence (closing of eyelids)”. Besides, in data set [2] (cystamine-treated mice, single i.p. dose), the plasma cysteamine level entry is “undetectable”. Further, the brain cysteamine level result in data set [2] (single i.p. cystamine 50 mg/kg, 1 h post-injection, vs saline) is “significant increases; also recorded: significantly increased”; in data set [2] (single i.p. cystamine 200 mg/kg, 1 h post-injection, vs saline), “significant increase”; in data set [2] (single i.p. cystamine (200 mg/kg per FIG. 7), 3 h post-injection, vs saline), “remained significantly elevated; also recorded: significant increase”; in data set [2] (single i.p. cystamine, all three doses (10, 50, 200 mg/kg), each time point), “marked increased in brain cysteamine”. Further, the plasma hypotaurine level entry in data set [2] (setting [3]) is on record as “remained under or close to the detection threshold”. Moreover, the plasma taurine level entry in data set [2] (setting [3]) is listed as “remained under or close to the detection threshold”. For the same molecule, the brain hypotaurine level result in data set [2] (setting [4]) was “no significant alteration”. Moreover, the brain taurine level result in data set [2] (setting [4]) is “no significant alteration”. Moreover, in data set [2] (single i.p. cystamine, up to 200 mg/kg (data not shown)), the plasma cysteine level entry is “did not affect”. In addition, the brain cysteine level entry in data set [2] (single i.p. cystamine, up to 200 mg/kg, all time points) is “did not affect; also recorded: stable”.
